Source: patent US10650534B2, “Display control and image processing of a cell image” (Sony Corporation, priority 2011, dated 2020)
Entries after “also recorded” stand apart in the source; their conditions may differ.

Test system: cultured cardiomyocytes
Test: Propagation of pulsation in cultured cardiomyocytes after drug administration, shown by two-dimensional color maps of the motion amount absolute value
Assay type: cell-based
Settings: for speed of propagation of pulsation / state (direction, path) of propagation of pulsation: compared with organic solvent (control); for state (direction, path) of propagation of pulsation: color maps over 0 to 240 ms; for stop of propagation of pulsation / region without pulsation (motionless region): within the observation region
From the text: A drug evaluation apparatus 100 illustrated in FIG. 3 is an apparatus that conducts evaluation of a drug administered to cultured cardiomyocytes 110 by observing a motion of the cardiomyocytes 110. […] The imaging unit 101 images the cultured cardiomyocytes 110 during a predetermined period. That is, the imaging unit 101 obtains a moving image of the cultured cardiomyocytes 110 as an object. The imaging unit 101 images the cultured cardiomyocytes 110 before and after the drug administration. Note that the imaging unit 101 may image the cultured cardiomyocytes 110 several times after the drug administration according to a predetermined condition, such as after a predetermined time having passed, for example. The evaluation index data generation unit 103 performs, in each frame image of the supplied object to be evaluated image data 112, motion detection of the object to be observed (cultured cardiomyocytes 110) for each block that is a subregion obtained by dividing all regions of an image of the object to be observed (cultured cardiomyocytes 110) into a plurality of regions. The evaluation index data generation unit 103 expresses the detected motion of each block as a motion vector, and obtains the magnitude of the motion vector (motion amount). Note that this motion amount is an absolute value, and therefore, hereinafter, the motion amount will be also referred to as a motion amount absolute value. The evaluation unit 104 maps the motion amount absolute value supplied as the evaluation index data 113 into a two-dimensional color map, and evaluates the drug by expressing the state of propagation of pulsation and further, by quantitatively evaluating the state thereof. The evaluation unit 104 outputs the two-dimensional color map and a quantitative evaluation result as an evaluation value 114. The two-dimensional color map indicates the size of a parameter at each position on a plane in color. In this case, the plane represents an observation region of the cultured cardiomyocytes 110, and the color represents the motion amount absolute value (size of the value). That is, a position of the motion amount absolute value is represented by a position on the plane, and the size of the value is represented in color. That is, a distribution of the motion amount absolute value within the observation region is indicated by a change of the color on the plane. Examples of such a two-dimensional color map are illustrated in FIGS. 4 to 6. The eight color maps illustrated in FIG. 4 respectively indicate the distribution of the motion amount absolute value within the observation region, and a position on the color map indicates a position within the observation region and higher color density indicates a larger motion amount absolute value. […] Note that the arrows on the color maps are drawn for the purpose of description, and they are not drawn on actual color maps.

SMILES	speed of propagation of pulsation	state (direction, path) of propagation of pulsation	stop of propagation of pulsation / region without pulsation (motionless region)
CCCCCCCO [1-Heptanol]	the speed of the propagation is slow	linearly propagated as time passes while changing the direction to revolve	–
CC1(C)[C@@H](O)CC[C@]2(C)[C@H]3C(=O)C=C4[C@@H]5C[C@@](C)(C(=O)O)CC[C@]5(C)CC[C@@]4(C)[C@]3(C)CC[C@@H]12 [18-β-Glycyrrhetinic acid]	the speed of the propagation is slow	proceeds into various directions	the propagation of the pulsation temporarily stops
CC(C)NCC(O)c1ccc(NS(C)(=O)=O)cc1 (racemic) [DL-sotalol]	the speed of the propagation is slower than the left side	propagated from an upper left side to a lower right side, but the propagation stops within the observation region	pulsation is not caused in a part of the observation region in the right side; also recorded: the pulsation is not propagated to the right side portion of the observation region
